Results taken from ChEMBL document CHEMBL1909046, “DrugMatrix in vitro pharmacology data”.

Assays:
[1] = molecular target: Glycine receptor (Rattus norvegicus, UniProt P22771+P24524+P07727+P20781); type: cell membranes, Wistar, Spinal cord, Membrane; further: in other assays of this panel Not Active means under 50% inhibition at 10 µM
[2] = molecular target: Matrix metalloproteinase-9 (Homo sapiens, UniProt P14780); test: biochemical; type: cell-based;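 further: inhibition of isolated MMP-9 enzyme activity toward a synthetic peptide substrate, from the DrugMatrix protease screening panel; in other assays of this panel Not Active means under 50% inhibition at 10 µM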
Chain of Matrix metalloproteinase-9 (P14780 whole entry): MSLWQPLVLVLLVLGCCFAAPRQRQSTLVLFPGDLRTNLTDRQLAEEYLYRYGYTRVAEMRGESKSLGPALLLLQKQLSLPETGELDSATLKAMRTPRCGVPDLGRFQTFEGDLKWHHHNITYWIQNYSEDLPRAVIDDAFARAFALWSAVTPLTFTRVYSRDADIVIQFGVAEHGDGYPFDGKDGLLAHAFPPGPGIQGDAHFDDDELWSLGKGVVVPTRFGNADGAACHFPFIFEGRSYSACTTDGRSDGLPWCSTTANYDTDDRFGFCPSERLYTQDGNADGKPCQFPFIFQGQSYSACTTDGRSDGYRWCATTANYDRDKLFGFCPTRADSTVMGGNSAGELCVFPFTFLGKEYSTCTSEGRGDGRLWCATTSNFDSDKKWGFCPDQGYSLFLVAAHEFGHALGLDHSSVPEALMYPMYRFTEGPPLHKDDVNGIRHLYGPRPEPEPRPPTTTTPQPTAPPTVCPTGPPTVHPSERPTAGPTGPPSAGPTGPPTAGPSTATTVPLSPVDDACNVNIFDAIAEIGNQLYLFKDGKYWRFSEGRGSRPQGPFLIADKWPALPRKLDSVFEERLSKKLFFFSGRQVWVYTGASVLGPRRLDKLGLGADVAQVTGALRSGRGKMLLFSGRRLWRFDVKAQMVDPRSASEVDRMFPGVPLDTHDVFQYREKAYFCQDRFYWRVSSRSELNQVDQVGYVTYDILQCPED

[3] = molecular target: T1, 5-hydroxytryptamine receptor 1A (Rattus norvegicus, UniProt P19327); type: cell membranes, Membrane; settings: cho-k1; further: in other assays of this panel Not Active means under 50% inhibition at 10 µM
T1 sequence (P19327 whole entry): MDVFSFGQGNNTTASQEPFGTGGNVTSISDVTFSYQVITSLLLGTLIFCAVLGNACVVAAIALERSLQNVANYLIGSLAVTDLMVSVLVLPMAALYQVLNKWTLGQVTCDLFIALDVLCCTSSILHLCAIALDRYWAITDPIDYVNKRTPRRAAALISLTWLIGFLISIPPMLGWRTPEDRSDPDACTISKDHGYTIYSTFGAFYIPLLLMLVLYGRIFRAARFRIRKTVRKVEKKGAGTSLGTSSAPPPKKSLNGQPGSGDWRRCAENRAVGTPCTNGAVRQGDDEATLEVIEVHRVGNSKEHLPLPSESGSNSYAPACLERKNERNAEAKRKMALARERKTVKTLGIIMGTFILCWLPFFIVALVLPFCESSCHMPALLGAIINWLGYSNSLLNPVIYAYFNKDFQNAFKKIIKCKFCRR

[4] = molecular target: T2, Angiotensin-converting enzyme (Oryctolagus cuniculus, UniProt P12822); type: tissue-based, Lung;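 further: enzymatic inhibition of angiotensin-converting enzyme measured with FAPGG as the substrate; in other assays of this panel Not Active means under 50% inhibition at 10 µM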
T2 sequence (P12822 whole entry): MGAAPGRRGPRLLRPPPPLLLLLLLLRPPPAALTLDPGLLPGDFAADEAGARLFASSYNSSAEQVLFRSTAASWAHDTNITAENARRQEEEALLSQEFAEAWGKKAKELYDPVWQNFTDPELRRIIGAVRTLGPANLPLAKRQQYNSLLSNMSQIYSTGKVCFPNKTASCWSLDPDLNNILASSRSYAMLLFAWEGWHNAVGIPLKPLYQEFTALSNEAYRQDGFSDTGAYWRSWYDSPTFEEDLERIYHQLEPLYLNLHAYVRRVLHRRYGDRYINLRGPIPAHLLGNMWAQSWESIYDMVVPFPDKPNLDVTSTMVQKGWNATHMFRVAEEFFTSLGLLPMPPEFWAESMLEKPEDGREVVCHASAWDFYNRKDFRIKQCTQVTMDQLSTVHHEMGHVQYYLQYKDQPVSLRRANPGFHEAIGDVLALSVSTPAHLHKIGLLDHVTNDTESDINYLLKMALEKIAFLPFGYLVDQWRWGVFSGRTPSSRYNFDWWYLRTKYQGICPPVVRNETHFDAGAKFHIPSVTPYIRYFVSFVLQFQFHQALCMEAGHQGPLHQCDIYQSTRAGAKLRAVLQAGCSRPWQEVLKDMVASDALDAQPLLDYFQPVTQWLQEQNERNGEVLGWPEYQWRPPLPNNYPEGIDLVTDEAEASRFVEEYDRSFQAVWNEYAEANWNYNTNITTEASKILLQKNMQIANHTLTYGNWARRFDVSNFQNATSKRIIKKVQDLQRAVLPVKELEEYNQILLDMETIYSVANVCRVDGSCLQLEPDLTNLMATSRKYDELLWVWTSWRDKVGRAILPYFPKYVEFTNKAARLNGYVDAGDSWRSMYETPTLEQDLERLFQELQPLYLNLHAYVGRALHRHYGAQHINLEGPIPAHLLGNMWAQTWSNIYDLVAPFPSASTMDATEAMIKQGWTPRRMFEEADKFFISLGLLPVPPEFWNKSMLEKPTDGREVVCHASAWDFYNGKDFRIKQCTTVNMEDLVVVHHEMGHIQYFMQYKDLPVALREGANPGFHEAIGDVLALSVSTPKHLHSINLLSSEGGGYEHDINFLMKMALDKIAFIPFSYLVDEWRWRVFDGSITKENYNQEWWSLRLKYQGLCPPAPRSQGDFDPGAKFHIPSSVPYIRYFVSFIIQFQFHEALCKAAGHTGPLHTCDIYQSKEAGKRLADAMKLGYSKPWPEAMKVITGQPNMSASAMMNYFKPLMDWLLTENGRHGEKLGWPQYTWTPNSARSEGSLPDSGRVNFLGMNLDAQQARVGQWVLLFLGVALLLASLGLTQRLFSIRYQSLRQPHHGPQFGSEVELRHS

[5] = molecular target: T3, Adenosine receptor A3 (Homo sapiens, UniProt P0DMS8); type: cell membranes, CHO-K1, Membrane
T3 sequence (P0DMS8 whole entry): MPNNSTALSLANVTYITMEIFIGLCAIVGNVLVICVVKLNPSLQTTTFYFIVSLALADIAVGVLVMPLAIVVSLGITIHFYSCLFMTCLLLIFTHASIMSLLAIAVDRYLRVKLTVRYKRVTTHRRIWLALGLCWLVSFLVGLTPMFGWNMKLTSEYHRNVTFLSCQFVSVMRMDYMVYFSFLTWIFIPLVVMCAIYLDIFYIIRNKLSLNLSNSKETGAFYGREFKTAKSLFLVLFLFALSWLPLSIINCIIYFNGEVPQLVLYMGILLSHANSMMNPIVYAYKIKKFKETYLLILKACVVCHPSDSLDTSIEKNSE

[6] = molecular target: T4, Leukotriene C4 synthase (Cavia porcellus, UniProt A6XA80); type: tissue-based, Lung
T4 sequence (A6XA80 whole entry): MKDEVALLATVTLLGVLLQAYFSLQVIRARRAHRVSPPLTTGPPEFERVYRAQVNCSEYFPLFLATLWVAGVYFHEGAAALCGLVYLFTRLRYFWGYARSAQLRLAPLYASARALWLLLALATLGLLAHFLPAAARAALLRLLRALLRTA

[7] = DRUGMATRIX: beta-Lactamase enzyme inhibition (substrate: Nitrocefin); set-up: species or system Bacillus cereus; settings: Not Active = under 50% inhibition at 10 µM

| Structure (SMILES) | IC50 [1] | IC50 [2] | IC50 [3] | IC50 [4] | IC50 ([5]; cho-k1) | IC50 [6] | IC50 [7] | Ki [7] | IC50 ([5]; read-out: IC50) [µM] | Ki ([5]; read-out: Ki) [µM] |
| --- | --- | --- | --- | --- | --- | --- | --- | --- | --- | --- |
| C[C@]12CC[C@@H]3c4ccc(O)cc4CC[C@H]3[C@@H]1CC[C@@H]2O [ESTRADIOL] | Not Active | Not Active | Not Active | Not Active | Not Active | Not Active | Not Active | Not Active |  |  |
| CC[C@@H](CO)NCCN[C@@H](CC)CO [ETHAMBUTOL] | Not Active | Not Active | Not Active | Not Active | Not Active | Not Active | Not Active | Not Active |  |  |
| CC1(C)O[C@@H]2C[C@H]3[C@@H]4C[C@H](F)C5=CC(=O)C=C[C@]5(C)[C@H]4[C@@H](O)C[C@]3(C)[C@]2(C(=O)CO)O1 [FLUNISOLIDE] | Not Active | Not Active | Not Active | Not Active | Not Active | Not Active | Not Active | Not Active |  |  |
| CC1(C)O[C@@H]2C[C@H]3[C@@H]4C[C@H](F)C5=CC(=O)C=C[C@]5(C)[C@@]4(F)[C@@H](O)C[C@]3(C)[C@]2(C(=O)CO)O1 [FLUOCINOLONE ACETONIDE] | Not Active | Not Active | Not Active | Not Active | Not Active | Not Active | Not Active | Not Active |  |  |
| CC1(C)O[C@@H]2C[C@H]3[C@@H]4C[C@H](F)C5=CC(=O)CC[C@]5(C)[C@H]4[C@@H](O)C[C@]3(C)[C@]2(C(=O)CO)O1 [FLURANDRENOLIDE] | Not Active | Not Active | Not Active | Not Active | Not Active | Not Active | Not Active | Not Active |  |  |
| CN(C)c1ccc(C(=C2C=CC(=[N+](C)C)C=C2)c2ccc(N(C)C)cc2)cc1.[Cl-] [GENTIAN VIOLET] | Not Active | Not Active | Not Active | Not Active |  | Not Active | Not Active | Not Active | 4.17 | 2.35 |
| Cc1ccc(S(=O)(=O)NC(=O)NN2CC3CCCC3C2)cc1 (centres undefined) [GLICLAZIDE] | Not Active | Not Active | Not Active | Not Active | Not Active | Not Active | Not Active | Not Active |  |  |
| NC(=O)NO [HYDROXYUREA] | Not Active | Not Active | Not Active | Not Active | Not Active | Not Active | Not Active | Not Active |  |  |
| CC(C)Cc1ccc(C(C)C(=O)O)cc1 (centres undefined) [IBUPROFEN] | Not Active | Not Active | Not Active | Not Active | Not Active | Not Active | Not Active | Not Active |  |  |
| COc1ccc2c(c1)c(CC(=O)O)c(C)n2C(=O)c1ccc(Cl)cc1 [INDOMETHACIN] | Not Active | Not Active | Not Active | Not Active | Not Active | Not Active | Not Active | Not Active |  |  |
| CCc1c2c(nc3ccc(OC(=O)N4CCC(N5CCCCC5)CC4)cc13)-c1cc3c(c(=O)n1C2)COC(=O)[C@]3(O)CC [IRINOTECAN] | Not Active | Not Active | Not Active | Not Active | Not Active | Not Active | Not Active | Not Active |  |  |
